Assay results reported in patent US20230416314A1, “MODIFIED HIGH MOLECULAR WEIGHT GLUTENIN SUBUNIT AND USES THEREOF” (Ukko Inc., priority 2020, published 2023).
Where two headings read alike, the source gives them in different places. Residues, ends and D or L forms follow the SMILES beside them. No end group written: not given here.

How the values were obtained:
HLA-DQ7.5 [1] = biological target: HLA-DQ7.5 (Homo sapiens, UniProt P01909+P01920); assay: MHC II/peptide competition binding assay, HLA-DQ7.5
Description: The peptides were synthesized as purified material on the 2 mg scale with free acid C-termini (A&A labs, USA). One skilled in the art would appreciate that the 15-mers used included shorter de-epitoped high molecular weight glutenin peptide sequences (mutated repeating antigenic units), as described throughout. For example, Table 2 provides a listing of 15-mers and the shorter mutated repeating antigenic units present therein.
Briefly, competition assays using different concentrations of wild-type (WT) and modified glutenin peptides were conducted by diluting the peptides in NP40 buffer, and incubation for 2-4 days with purified MHC II and a radiolabeled known MHC binding peptide (peptide probe). MHC II molecules were purified by affinity chromatography, and peptides were radiolabeled using the chloramine T method. After an incubation period, the bound and unbound radiolabeled species were separated, and their relative amounts were determined by either size-exclusion gel-filtration chromatography or monoclonal antibody capture of MHC. The percent of bound radioactivity was then determined.

HLA-DQ2.2 [2] = biological target: HLA-DQ2.2 (Homo sapiens, UniProt P01909+P01920, A45G/A70V/C70K/D167G/D89A/E106A/E183D/E77G/E98D/F237L/F77L/G63E/H199R/I129T/K197E/L107V/L178F/L74F/N214S/P84L/P87L/Q57E/Q76R/R75H/S185I/S97I/T103K/T109R/T172A/T60S/V73L/V78E/V99I/Y48F/Y58L/Y62S/Y69I/Y79F); assay: MHC II/peptide competition binding assay, HLA-DQ2.2
Description: (§1) One skilled in the art would appreciate that the 15-mers used included shorter de-epitoped high molecular weight glutenin peptide sequences (mutated repeating antigenic units), as described throughout. For example, Table 2 provides a listing of 15-mers and the shorter mutated repeating antigenic units present therein. […] MHC II molecules were purified by affinity chromatography, and peptides were radiolabeled using the chloramine T method. After an incubation period, the bound and unbound radiolabeled species were separated, and their relative amounts were determined by either size-exclusion gel-filtration chromatography or monoclonal antibody capture of MHC. The percent of bound radioactivity was then determined.

HLA-DQ8 [3] = biological target: HLA-DQ8 (Homo sapiens, UniProt P01909+P01920, A209T/A45G/C70Q/D89A/DUP78-78/E183D/E77G/F237L/G63E/H199R/I129T/K197E/L178F/L74F/L98V/Q57E/Q76R/S185I/S97I/T217I/T49S/V73L/Y58L); assay: MHC II/peptide competition binding assay, HLA-DQ8
Description: as §1

HLA-DQ2.5 [4] = biological target: HLA-DQ2.5 (Homo sapiens, UniProt P01909+P01920, A45G/A70V/D89A/E106A/E77G/E98D/H199R/L107V/N214S/P84L/P87L/T103K/T109R/T172A/T60S/V78E/V99I/Y58L/Y62S/Y69I/Y79F); assay: MHC II/peptide competition binding assay, HLA-DQ2.5
Description: as §1

[5] = test system: Gluten-reactive T-cell lines (TCLs) from celiac disease patients' biopsies; assay: T-cell activation assay (IFN-γ ELISA); format: cell-based, human; settings: peptides 10 μM, 48 h; positive if IFNγ ≥2-fold vs control and significantly higher (one-sided t-test)
Description: 200 mg of protein were first incubated in 5% formic acid with 4 mg pepsin for 4 hours in 37° C. Then the sample was evaporated using speedVac. On the following day, the protein was incubated with 4 mg chymotrypsin in 20 mM ammonium-bicarbonate for 4 hours in 37° C., followed by speedVac evaporation. The concentration of the digest was then measured, and the digest was deamidated using transglutaminase, 2 U per 7 mg digest for 6 hours in 37° C. The samples were then cleaned using a C18 column, dried and resuspended in media at a concentration of 2 mg/ml. […]
TCLs from celiac disease patients' biopsies were assayed for responses to deamidated PCT-HMW proteins and HMW peptides by the detection of IFN-7 by enzyme-linked immunosorbent assay (ELISA), as previously described (Gianfrani, Carmen, et al. “Gliadin-specific type 1 regulatory T cells from the intestinal mucosa of treated celiac patients inhibit pathogenic T cells.” The journal of immunology 177.6 (2006): 4178-4186.). […] The reaction was stopped, and the plate was read on the ELISA plate reader at […]. The results were analyzed using Graphpad Prism and IFNγ levels were determined. […]

HLA-DQ7.5 [6] = assay: MHC II competition binding assay (purified MHC II, radiolabeled probe peptide as competitor)
HLA-DQ2.5 [7] = assay: as above
HLA-DQ8 [8] = assay: as above
HLA-DQ2.2 [9] = assay: as above
[10] = Table 3, 15-mer peptides, >40000 signifies binding is undetectable by assay

Molecule	IC50 (HLA-DQ8 [3]) [µM]	IC50 (HLA-DQ2.5 [4]) [µM]	IC50 (HLA-DQ7.5 [1]) [µM]	IC50 (HLA-DQ2.2 [2]) [µM]	IC50 (HLA-DQ7.5 [6]) [µM]	also measured
C[C@@H](O)[C@H](NC(=O)[C@H](CO)NC(=O)[C@@H](NC(=O)[C@@H]1CCCN1C(=O)[C@H](Cc1ccc(O)cc1)NC(=O)[C@H](Cc1c[nH]cn1)NC(=O)[C@H](Cc1c[nH]c2ccccc12)NC(=O)[C@H](CCC(=O)O)NC(=O)[C@H](CCC(N)=O)NC(=O)CNC(=O)[C@@H](N)CCC(N)=O)[C@@H](C)O)C(=O)N[C@@H](CCC(=O)O)C(=O)N[C@@H](CCC(N)=O)C(=O)N[C@@H](CO)C(=O)NCC(=O)O [P1h] (H-QGQEWHYPTSTEQSG-OH)	–	–	–	–	–	IC50 (HLA-DQ7.5 [1]; [10]): > 40 µM; IC50 (HLA-DQ2.2 [2]; [10]): 5.72 µM; IC50 (HLA-DQ8 [3]; [10]): > 40 µM; IC50 (HLA-DQ2.5 [4]; [10]): > 40 µM
C[C@@H](O)[C@H](NC(=O)[C@@H]1CCCN1C(=O)[C@H](Cc1ccc(O)cc1)NC(=O)[C@H](Cc1ccc(O)cc1)NC(=O)CNC(=O)[C@H](CCCCN)NC(=O)[C@H](CCC(N)=O)NC(=O)CNC(=O)[C@@H](N)CCC(N)=O)C(=O)N[C@@H](CO)C(=O)N1CCC[C@H]1C(=O)N[C@@H](Cc1c[nH]cn1)C(=O)N[C@@H](CCC(N)=O)C(=O)N[C@@H](CO)C(=O)NCC(=O)O [SEQ ID NO: 143] (H-QGQKGYYPTSPHQSG-OH; N-terminus assumed)	> 40	34.4	–	–	–	T-cell activation (IFN-γ levels by ELISA) [5]: abolishment of T-cell activation
CC(C)C[C@H](NC(=O)CNC(=O)[C@H](CCCNC(=N)N)NC(=O)CNC(=O)[C@H](CCC(=O)O)NC(=O)[C@H](CCC(N)=O)NC(=O)CNC(=O)[C@@H](N)CCC(N)=O)C(=O)N[C@H](C(=O)N[C@@H](CO)C(=O)N1CCC[C@H]1C(=O)N[C@@H](Cc1c[nH]cn1)C(=O)N[C@@H](CCC(N)=O)C(=O)N[C@@H](CO)C(=O)NCC(=O)O)[C@@H](C)O [SEQ ID NO: 144] (H-QGQEGRGLTSPHQSG-OH)	> 40	> 40	39.3	> 40	–	–
C[C@@H](O)[C@H](NC(=O)[C@@H]1CCCN1C(=O)[C@H](Cc1ccc(O)cc1)NC(=O)[C@H](CCCNC(=N)N)NC(=O)CNC(=O)[C@H](CCC(=O)O)NC(=O)[C@H](CCC(N)=O)NC(=O)CNC(=O)[C@@H](N)CCC(N)=O)C(=O)N[C@@H](CO)C(=O)N1CCC[C@H]1C(=O)N[C@@H](CCCCN)C(=O)N[C@@H](CCC(N)=O)C(=O)N[C@@H](CO)C(=O)NCC(=O)O [SEQ ID NO: 146] (H-QGQEGRYPTSPKQSG-OH)	> 40	> 40	> 40	> 40	–	–
CC(C)C[C@H](NC(=O)[C@H](CO)NC(=O)[C@@H](NC(=O)[C@@H]1CCCN1C(=O)[C@H](Cc1ccc(O)cc1)NC(=O)[C@H](Cc1ccc(O)cc1)NC(=O)CNC(=O)[C@@H]1CCCN1C(=O)[C@H](CCC(N)=O)NC(=O)CNC(=O)[C@@H](N)CCC(N)=O)[C@@H](C)O)C(=O)N[C@H](C(=O)N[C@@H](CCC(N)=O)C(=O)N[C@@H](CO)C(=O)NCC(=O)O)[C@@H](C)O [SEQ ID NO: 147] (H-QGQPGYYPTSLTQSG-OH)	> 40	> 40	> 40	> 40	–	–
CC(C)C[C@H](NC(=O)[C@H](CC(=O)O)NC(=O)[C@H](CCCNC(=N)N)NC(=O)CNC(=O)[C@H](CCC(=O)O)NC(=O)[C@H](CCC(N)=O)NC(=O)CNC(=O)[C@@H](N)CCC(N)=O)C(=O)N[C@H](C(=O)N[C@@H](CO)C(=O)N1CCC[C@H]1C(=O)N[C@@H](CCCCN)C(=O)N[C@@H](CCC(N)=O)C(=O)N[C@@H](CO)C(=O)NCC(=O)O)[C@@H](C)O [SEQ ID NO: 169] (H-QGQEGRDLTSPKQSG-OH)	> 40	> 40	> 40	> 40	–	–
C[C@H](NC(=O)[C@@H]1CCCN1C(=O)CNC(=O)[C@H](Cc1c[nH]cn1)NC(=O)CNC(=O)[C@H](CCC(=O)O)NC(=O)[C@H](CCC(N)=O)NC(=O)CNC(=O)[C@@H](N)CCC(N)=O)C(=O)N[C@@H](CO)C(=O)N1CCC[C@H]1C(=O)N[C@@H](CCCCN)C(=O)N[C@@H](CCC(N)=O)C(=O)N[C@@H](CO)C(=O)NCC(=O)O [SEQ ID NO: 174] (H-QGQEGHGPASPKQSG-OH)	> 40	> 40	16.4	> 40	–	–
QGQPRYYPTSPRQSG-OH [P1e, modified 15-mer peptide … (SEQ ID NO: 53)]	–	–	–	–	19.4	IC50 (HLA-DQ2.5 [7]): 33.2 µM; IC50 (HLA-DQ8 [8]): 32.5 µM
QGQQGYYPTSPQQSG-OH [P1a, native HMW glutenin 15-mer peptide … (SEQ ID NO: 49)]	–	–	–	–	–	IC50 (HLA-DQ2.5 [7]): 29.8 µM; IC50 (HLA-DQ8 [8]): 14.2 µM
QGQEWHYPTSTEQSG-OH [P1h, modified 15-mer peptide … (SEQ ID NO: 56)]	–	–	–	–	–	IC50 (HLA-DQ2.2 [9]): 5.72 µM
QGQEPYGPSSPEQSG-OH [modified 15-mer peptide … (SEQ ID NO: 176)]	–	–	–	–	28.6	–
QGAAGYYPTSPRQSG-OH [P1c, modified 15-mer peptide … (SEQ ID NO: 51)]	–	–	–	–	19.9	–
QGQEGYYPTSPEQSG-OH [P1b, deamidated HMW glutenin 15-mer peptide … (SEQ ID NO: 50)]	–	–	–	–	–	IC50 (HLA-DQ2.5 [7]): 3.29 µM; IC50 (HLA-DQ8 [8]): 3.75 µM
QGQEGHGPASPKQSG-OH [modified 15-mer peptide … (SEQ ID NO: 174)]	–	–	–	–	16.4	–
QGQEGRGLTSPHQSG-OH [modified 15-mer peptide … (SEQ ID NO: 144)]	–	–	–	–	39.3	–
